According to US11332438B2, “Creatine prodrugs, compositions and methods of use thereof” (Ultragenyx Pharmaceutical Inc., priority 2017, dated 2022):
Structures can show the parent of a compound that is named as a salt.

What was measured:
[1] = Chemical stability in simulated gastric fluid (SGF) without pepsin; type: physicochemical; conditions: Table 2B, 50 μM prodrug
Experimental: (§1) Chemical stability of creatine prodrugs in phosphate buffered saline (PBS), simulated intestinal fluid (SIF) without pancreatin, simulated gastric fluid (SGF) without pepsin were determined by LC-UV, LC-CAD, LC-UV-CAD or LC-MS/MS as appropriate. Creatine prodrugs of the present disclosure (50 μM) were incubated at 37° C. according to described protocols and prodrug levels were compared between t=0, t=15, t=60, and t=120 mins by peak area ratio to determine the percentage remained at t=120 mins (2 h).
(§2) Protocol for PBS, SIF and SGF stability for screening:
(§3) Prodrugs (50 μM) were incubated in PBS, FaSSIF (Biorelevant) or FaSSGF (Biorelevant) at 37° C.

[2] = Chemical stability in phosphate buffered saline (PBS); type: physicochemical; conditions: Table 2B, 50 μM prodrug
Experimental: as §1, §2, §3

[3] = system: Phenocell CrT deficient neurons (iPSC-derived human neurons); test: Creatine prodrug uptake and d3-creatine release in Phenocell CrT deficient neurons (Table 4B); type: cell-based; conditions: 2 hours
Experimental: Human neurons were obtained by differentiation of iPSC-derived neural stem cells for 14 days. The iPSCs were obtained from Phenocell Corporation. Neurons were cultured and differentiated to Day 10 and then frozen in liquid nitrogen. Neurons were thawed and replated at 1×10^6 per well of viable cells on poly-ornithine/laminin coated plates in 2 ml medium per well. Differentiation in complete Neurol medium with 2 ng/ml FGF2 was carried out for 4 additional days with a complete medium change (90% of medium) on Day 12. Activin A (20 ng/ml final conc.) was spiked into the cultures on Day 11 and Day 13. […] In parallel, compounds were incubated in medium alone to assess chemical stability of parent prodrug and metabolites. At the end of the 2 hour incubation, supernatants were collected and frozen at −80 C. Neurons in 6 well plates were washed gently 3× with HBSS and frozen at −80° C. Cell lysates were obtained by addition of 130 μl/well 10 mM Tris pH 7.4 with complete Mini protease inhibitors and scraping of wells. Plates were kept on ice during processing. Lysates were homogenized by hand briefly with a green pestle in 1.5 ml centrifuge tubes and then vortexed at high speed for 5 seconds. Lysates were centrifuged at 13,000 g, 10 minutes, 4 C and supernatants (cytosol fraction) were transferred in a new tube. A crash solution constituted of 80% acetonitrile and 20% water with bucetin, d5-Cr (internal standard) was added at 4:1 volume to volume to 50 ul of all samples for a total volume of 250 μL. Then plate was spun at 4000 rpm, 10 minutes, […] Samples were transferred to a new plate and frozen at −80 C prior to analysis by LC-MS/MS (Table 4B).

[4] = Plasma stability, mouse plasma; type: in vitro ADME; conditions: 37 °C, read-out: Plasma Stability Mouse t1/2
Experimental: (§4) The stabilities of creatine prodrugs can be evaluated in one or more in vitro systems using a variety of preparations following methods known in the art. Experimental conditions useful for the in vitro studies are described in Table 1. Prodrug is added to each preparation in triplicate. […]
(§5) Protocol for plasma stability for early screen macrocycles (Method A):
(§6) Frozen plasma was thawed by placing at 37° C. quickly and centrifuged at 3,000 rpm for 8 minutes to remove clots. Then the supernatant was pipetted and pooled as the plasma to be used in the experiment. The plasma was placed on ice until used. The test compounds and reference compounds spiking solution was prepared as a 2.5 mM test compounds spiking solution A: Add 20 μL of 10 mM test compounds stock solution to 60 μL DMSO. 0.1 mM Spiking solution B was prepared: Add 40 μL of spiking solution A to 960 μL of […] Sodium phosphate buffer with 0.5% BSA. […] For 0-min, 400 μL of ACN containing IS was added to the wells of 0-min plate and then 90 μL of plasma was added. […] 50 μL of the supernatant was transferred from each well into a 96-well sample plate containing 120 μL of ultra pure water (Millipore, ZMQS50F01) and analyzed by LC/MS.
(§7) Protocol for plasma stability (Method B):
(§8) The frozen plasma was thawed in a 37° C. water bath and then, if needed, adjusted to pH=7.4 then preheated in a 37° C. incubator. The test article was dissolved in 10% DMSO/water and spiked into plasma pre-plated into 96 well plates at a final concentration of 1 μM. Discrete incubations were performed at 37° C. and included 5 time points: t=0, 2, 5, 15, and 30 min. Samples were then crashed with 4× volume, ice cold 20% water/80% acetonitrile and spun at 4000 g for 10 mins. The supernatant was dried down and reconstituted with water and analyzed by LC-MS/MS. The half life in minute was calculated.

[5] = Liver microsome stability, human; type: in vitro ADME; conditions: liver microsomes, pH 7.4, Table 2B, read-out: Microsome Stability Human t1/2
Experimental: as §4
(§9) Protocol for Microsomal Stability:
(§10) For reference compound, a 500 μM spiking solution was prepared: add 10 μL of 10 mM DMSO stock solution into 190 μL ACN. […] For test compound, a 5 mM spiking solution was prepared: add 10 μL of 10 mM DMSO stock solution into 10 μL ACN. […] NADPH stock solution (6 mM) was prepared by dissolving NADPH into buffer 0.1 M Potassium Phosphate buffer, 1.0 mM EDTA, pH 7.4. […] For 0-min, 135 μL of ACN containing IS was added to the wells of 0-min plate and then 15 μL of NADPH stock solution (6 mM) was added. 15 μL of NADPH stock solution (6 mM) was added to the samples designated as 0-, 5-, 10-, 20-, 30-min, 60-min; 15 μL of buffer 0.1 M Potassium Phosphate buffer, 1.0 mM EDTA, pH 7.4, was added to the samples designated as 60-min without NADPH. At 5-min, 10-min, 20-min, and 30-min, 60-min 135 μL of ACN containing IS was added to the wells of corresponding plates, respectively, to stop the reaction. […] 50 μL of the supernatant from each well was transferred into a 96-well sample plate containing 50 μL of ultra pure water (Millipore, ZMQS50FOI) and analyzed by LC/MS.

[6] = Plasma stability, human plasma; type: in vitro ADME; conditions: 37 °C, read-out: Plasma Stability Human t1/2
Experimental: as §4, §5, §6, §7, §8

[7] = Liver microsome stability, mouse; type: in vitro ADME; conditions: liver microsomes, pH 7.4, Table 2B, read-out: Microsome Stability Mouse t1/2
Experimental: as §4, §9, §10

**Q.** With `Cl.[2H]C([2H])([2H])N(CC(=O)OC(C)C(C)(C)C)C(=N)NC(=O)CCCCCCCCCC` (stereo not drawn) [Compound 52] as the molecule, how does the “Chemical Stability SGF, no enzyme % T0 at 2 hours at 37 °C.” value [1] read?
**A.** 98%

**Q.** And the “Chemical Stability PBS % T0 at 2 hours at 37 °C.” value [2]?
**A.** 98%

**Q.** And the “Prodrug concentration in the cell cytosol” value (from here on “Prodrug concentration”) ([3]; Study No. 1, 10 μM)?
**A.** 3.47 nmoles/mg protein

**Q.** And the “d3-Creatine concentration in the cell cytosol” value (shortened to “d3-Creatine concentration”) ([3]; Study No. 1, 10 μM)?
**A.** 0.65 nmoles/mg protein

**Q.** What about the “d3-Creatinine concentration in the cell cytosol” value (“d3-Creatinine concentration” below) ([3]; Study No. 1, 10 μM) of the same molecule?
**A.** 0.84 nmoles/mg protein

**Q.** And the “Prodrug concentration” value ([3]; Study No. 1, 50 μM)?
**A.** 12 nmoles/mg protein

**Q.** And the “d3-Creatine concentration” value ([3]; Study No. 1, 50 μM)?
**A.** 2.9 nmoles/mg protein

**Q.** What about the “d3-Creatinine concentration” value ([3]; Study No. 1, 50 μM) of the same molecule?
**A.** 29.6 nmoles/mg protein

**Q.** What about the “Prodrug concentration” value ([3]; Study No. 2, 50 μM) of the same molecule?
**A.** 9.5 nmoles/mg protein

**Q.** What about the “d3-Creatine concentration” value ([3]; Study No. 2, 50 μM) of the same molecule?
**A.** 0.8 nmoles/mg protein

**Q.** And the “d3-Creatinine concentration” value ([3]; Study No. 2, 50 μM)?
**A.** 10.6 nmoles/mg protein

**Q.** What about the “Prodrug concentration” value ([3]; Study No. 3, 50 μM) of the same molecule?
**A.** 0.51 nmoles/mg protein

**Q.** What about the “d3-Creatine concentration” value ([3]; Study No. 3, 50 μM) of the same molecule?
**A.** 2.84 nmoles/mg protein

**Q.** And the “d3-Creatinine concentration” value ([3]; Study No. 3, 50 μM)?
**A.** 8.82 nmoles/mg protein

**Q.** For `[2H]C([2H])([2H])N(CC(=O)O)C(=N)NC(=O)CCCCCCCCCCO` [Compound 54], which “Chemical Stability SGF, no enzyme % T0 at 2 hours at 37 °C.” value [1] is on record?
**A.** 102%

**Q.** What about the half-life ([4]; Table 2B) of the same molecule?
**A.** > 180 min

**Q.** What about the “Chemical Stability PBS % T0 at 2 hours at 37 °C.” value [2] of the same molecule?
**A.** 103%

**Q.** What about the “Prodrug concentration” value ([3]; Study No. 1, 10 μM) of the same molecule?
**A.** BLOQ

**Q.** And the “d3-Creatine concentration” value ([3]; Study No. 1, 10 μM)?
**A.** BLOQ

**Q.** And the “d3-Creatinine concentration” value ([3]; Study No. 1, 10 μM)?
**A.** BLOQ

**Q.** What about the “Prodrug concentration” value ([3]; Study No. 1, 50 μM) of the same molecule?
**A.** BLOQ

**Q.** What about the “d3-Creatine concentration” value ([3]; Study No. 1, 50 μM) of the same molecule?
**A.** BLOQ

**Q.** And the “d3-Creatinine concentration” value ([3]; Study No. 1, 50 μM)?
**A.** BLOQ

**Q.** What about the half-life at 10 μM [5] of the same molecule?
**A.** > 90 min

**Q.** What about the half-life ([6]; Table 2B) of the same molecule?
**A.** > 180 min

**Q.** What about the half-life at 10 μM [7] of the same molecule?
**A.** > 90 min

**Q.** What does the source list for `[2H]C([2H])([2H])N1CC(=O)OCCCCCCC(=O)NC1=N` [Compound EE, 5-imino-4-trideuteriomethyl-1-oxa-4,6-diazacyclotridecane-2,7-dione]?
**A.** Prodrug concentration in the cell cytosol ([3]; Study No. 3, 50 μM): BLOQ; d3-Creatine concentration in the cell cytosol ([3]; Study No. 3, 50 μM): BLOQ

**Q.** With `[2H]C([2H])([2H])N1CC(=O)OC(C)(C)CCCCCCCCC(=O)NC1=N` [Compound HH, 5-imino-4-trideuteriomethyl-16,16-Dimethyl-1-oxa-4,6-diazacyclohexadecane-2,7-dione] as the molecule, how does the “Prodrug concentration” value ([3]; Study No. 3, 50 μM) read?
**A.** 0.088 nmoles/mg protein

**Q.** What about the “d3-Creatine concentration” value ([3]; Study No. 3, 50 μM) of the same molecule?
**A.** BLOQ

**Q.** What does the source list for `[2H]C([2H])([2H])N1CC(=O)OC(C)CCCCCCCCCCC(=O)NC1=N` (stereo not drawn) [Compound M]?
**A.** Prodrug concentration in the cell cytosol ([3]; Study No. 2, 100 μM): BLOQ; Prodrug concentration in the cell cytosol ([3]; Study No. 2, 500 μM): BLOQ

**Q.** What does the source list for `[2H]C([2H])([2H])N1CC(=O)O[C@H](C)CCCCCCCCCC(=O)NC1=N` [Compound Q, (R)-5-imino-4,17-dimethyl-1-oxa-4,6-diazacycloheptadecane-2,7-dione Hydrochloride]?
**A.** half-life ([4]; Table 2C, macrocycles): 1.3 min; Prodrug concentration in the cell cytosol ([3]; Study No. 2, 100 μM): BLOQ; Prodrug concentration in the cell cytosol ([3]; Study No. 2, 500 μM): BLOQ; half-life ([6]; Table 2C, macrocycles): 10 min

**Q.** For `[2H]C([2H])([2H])N1CC(=O)OC(C)CCCCCCCC(=O)NC1=N` (stereo not drawn) [Compound S, 5-imino-4-trideuteriomethyl-15-methyl-1-oxa-4,6-diazacyclopentadecane-2,7-dione], which “Prodrug concentration” value ([3]; Study No. 3, 50 μM) is on record?
**A.** BLOQ

**Q.** And the “d3-Creatine concentration” value ([3]; Study No. 3, 50 μM)?
**A.** BLOQ

**Q.** What does the source list for `[2H]C([2H])([2H])N1CC(=O)OC(C)(C)CCCCCCCCCC(=O)NC1=N` [Compound U, 5-imino-4-trideuteriomethyl-17,17-dimethyl-1-oxa-4,6-diazacycloheptadecane-2,7-dione]?
**A.** half-life ([4]; Table 2C, macrocycles): 70 min; Prodrug concentration in the cell cytosol ([3]; Study No. 3, 50 μM): 0.48 nmoles/mg protein; d3-Creatine concentration in the cell cytosol ([3]; Study No. 3, 50 μM): BLOQ; half-life ([6]; Table 2C, macrocycles): 72 min

**Q.** What does the source list for `[2H]C([2H])([2H])N1CC(=O)OC(CC)CCCCCCCC(=O)NC1=N` (stereo not drawn) [Compound V, 15-ethyl-5-imino-4-(methyl-d3)-1-oxa-4,6-diazacyclopentadecane-2,7-dione]?
**A.** Prodrug concentration in the cell cytosol ([3]; Study No. 3, 50 μM): BLOQ; d3-Creatine concentration in the cell cytosol ([3]; Study No. 3, 50 μM): BLOQ

**Q.** With `[2H]C([2H])([2H])N1CC(=O)OC(CCC)CCCCCCCC(=O)NC1=N` (stereo not drawn) [Compound W, 5-imino-4-trideuteriomethyl-15-propyl-1-oxa-4,6-diazacyclopentadecane-2,7-dione] as the molecule, how does the “Prodrug concentration” value ([3]; Study No. 3, 50 μM) read?
**A.** 0.44 nmoles/mg protein

**Q.** And the “d3-Creatine concentration” value ([3]; Study No. 3, 50 μM)?
**A.** BLOQ

**Q.** With `[2H]C([2H])([2H])N1CC(=O)OC(C)(C)CCCCCCCC(=O)NC1=N` [Compound X, 5-imino-15,15-dimethyl-4-(methyl-d3)-1-oxa-4,6-diazacyclopentadecane-2,7-dione] as the molecule, how does the “Prodrug concentration” value ([3]; Study No. 3, 50 μM) read?
**A.** BLOQ

**Q.** What about the “d3-Creatine concentration” value ([3]; Study No. 3, 50 μM) of the same molecule?
**A.** BLOQ
